Measurements published in patent US20090287072A1, “POLYMER COMPOSITIONS, COATINGS AND DEVICES, AND METHODS OF MAKING AND USING THE SAME” (THE REGENTS OF THE UNIVERSITY OF MICHIGAN, priority 2005, published 2009).

Legend:
[1] = NO generation by diorgano ditelluride from GSNO and GSH monitored by NOA; format: biochemical; conditions: GSNO and GSH in PBS pH 7.4, EDTA, ambient temperature; FIG. 13
[2] = Catalytic NO generation by ditelluride compounds via chemiluminescence NO analyzer (NOA); format: biochemical
Experimental: FIG. 19A also depicts other measurements of catalytic NO generation by ditelluride compounds. […] The rate of NO generation slowly decreases with time to reach a steady-state that lasts until all of the GSNO is consumed.

SMILES | NO generated relative to amount of catalyst used [1] | NO signal upon adding catalytic amounts ([2]; 2.5 μM catalyst, GSNO 25 μM, GSH 100 μM in PBS buffer, FIG. 19A) | RSNO decomposition to NO without RSH ([2]; absence of RSH, FIG. 19B)
O=C(O)CCCCC[Te][Te]CCCCCC(=O)O [compound 2] | much more NO than the amount of diorgano ditelluride |  | 
O=C(O)c1ccc([Te][Te]c2ccc(C(=O)O)s2)s1 [DTDTCA 2, 5,5′-ditelluro-2,2′-dithiophenecarboxylic acid] |  | relatively large signal appears quickly | decomposes RSNO to NO even in the absence of RSH
